Assay results published in ChEMBL document CHEMBL5360597, “Medicinal Chemistry Insights into the Development of Small-Molecule Kelch-Like ECH-Associated Protein 1-Nuclear Factor Erythroid 2-Related Factor 2 (Keap1-Nrf2) Protein-Protein Interaction Inhibitors” (J Med Chem, 2023).

Target: Keap1/Nrf2 (Homo sapiens, UniProt Q14145)
Assay: Inhibition of Keap1 Kelch domain (unknown origin)/FITC-labelled-9mer Nrf2 (unknown origin) protein-protein interaction incubated for 30 mins by fluorescence polarisation assay

Chain of Keap1/Nrf2 (Q16236 whole entry, the tested form may be a part): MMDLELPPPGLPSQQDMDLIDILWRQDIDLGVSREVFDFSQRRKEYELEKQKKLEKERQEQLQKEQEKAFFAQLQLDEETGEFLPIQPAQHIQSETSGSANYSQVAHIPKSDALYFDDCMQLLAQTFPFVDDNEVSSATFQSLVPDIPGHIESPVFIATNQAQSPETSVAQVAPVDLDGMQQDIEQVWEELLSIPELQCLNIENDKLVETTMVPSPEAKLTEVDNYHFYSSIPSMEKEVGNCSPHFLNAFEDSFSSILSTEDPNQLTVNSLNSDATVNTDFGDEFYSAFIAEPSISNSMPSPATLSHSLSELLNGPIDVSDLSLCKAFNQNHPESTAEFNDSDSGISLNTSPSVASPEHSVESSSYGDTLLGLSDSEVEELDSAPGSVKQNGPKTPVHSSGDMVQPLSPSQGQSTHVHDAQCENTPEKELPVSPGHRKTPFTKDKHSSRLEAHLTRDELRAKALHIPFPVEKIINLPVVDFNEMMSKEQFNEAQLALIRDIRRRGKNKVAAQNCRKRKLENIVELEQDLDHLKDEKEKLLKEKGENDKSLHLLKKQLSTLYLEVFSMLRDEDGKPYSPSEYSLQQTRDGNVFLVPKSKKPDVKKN
Chain of Keap1/Nrf2 (Q14145 whole entry, the tested form may be a part): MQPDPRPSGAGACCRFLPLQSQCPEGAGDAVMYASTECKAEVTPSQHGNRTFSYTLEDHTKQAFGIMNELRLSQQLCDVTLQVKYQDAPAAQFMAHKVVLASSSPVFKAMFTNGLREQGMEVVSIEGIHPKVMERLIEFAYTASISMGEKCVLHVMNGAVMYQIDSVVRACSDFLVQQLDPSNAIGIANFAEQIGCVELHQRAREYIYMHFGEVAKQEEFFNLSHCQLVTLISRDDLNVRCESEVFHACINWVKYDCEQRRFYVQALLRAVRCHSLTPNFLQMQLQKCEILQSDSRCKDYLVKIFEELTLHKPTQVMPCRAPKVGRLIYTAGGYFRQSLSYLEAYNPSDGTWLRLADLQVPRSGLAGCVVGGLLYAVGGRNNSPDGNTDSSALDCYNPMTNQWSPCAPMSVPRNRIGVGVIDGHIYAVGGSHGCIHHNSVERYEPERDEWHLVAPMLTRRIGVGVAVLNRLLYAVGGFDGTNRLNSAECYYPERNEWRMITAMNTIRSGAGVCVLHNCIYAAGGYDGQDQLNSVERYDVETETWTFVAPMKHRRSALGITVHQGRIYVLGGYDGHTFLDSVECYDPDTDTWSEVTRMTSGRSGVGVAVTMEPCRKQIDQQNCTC

IC50: 31.5 µM
SMILES: COc1ccc(S(=O)(=O)Nc2ccc(NS(=O)(=O)c3cccnc3)cc2)cc1
